Assay results as given in patent US11766068B1, “Method of treating smokeless tobacco” (Altria Client Services LLC, priority 2009, dated 2023).

Key:
HOK-16B cells [1] = assay: Morphologic assessment of necrotic/apoptotic cell death (Hema 3 staining); format: cell-based, human; conditions: for protection from STE-induced cell death: TROLOX 20 µmol/L, L-ascorbic acid 50 µmol/L or deferoxamine 50 µmol/L, 30 min prior to STE, FIG. 1D
Protocol: (§1) Extracts of smokeless tobacco were prepared in cell growth medium as follows. One gram of reference smokeless tobacco was mixed with 10 ml of cell growth medium and placed on a shaker at 300 rpm and allowed to mix for 2 hours at 37° C. It was then centrifuged at 125 g for 10 minites at 4° C. The extracted supernatant was collected and centrifuged at 14,000 g for 1 hour at 4° C. The supernatant was filtered using a 0.22 µm filter, divided into aliquots, and immediately stored at -80° C. The extracted supernatant yielded a 100 mg/ml smokeless tobacco extract (STE) solution, which was serially diluted to obtain the doses of STE (1-100 mg/ml) used.
The primary HOK cells, isolated from human oral mucosa, were plated on poly-L-lysine coated plates at a density of 5 × 10^5 cells/well in a 12-well plate and cultured in keratinocyte medium at 37° C. in a humidified atmosphere containing 5% CO2 (v/v). HOK-16B cells were plated at a density of 5 × 10^5 cells/well in a 12-well plate and cultured in keratinocyte growth medium supplemented with 0.1 ng/ml epidermal growth factor, 5 µg/ml insulin, 30 µg/mlgentamicin, and 50 µg/mlamphoterecin at 37° C. in a humidified atmosphere containing 5% CO2 (v/v). The Het-1A cells were attached to plates pre-coated with LHC-9 medium supplemented with 0.01 mg/ml fibronectin, 0.03 mg/ml bovine collagen type I and 0.01 mg/ml bovine serum albumin for 1 hour, at a density of 5 × 10^5 cells/well in a 12-well plate and cultured in LHC-9 medium at 37° C. in a humidified atmosphere containing 5% CO2 (v/v). Unless otherwise indicated, cells were exposed to STE at 24 hours after plating.
Cells were treated with TROLOX (6-hydroxy-2,5,7,8-tetramethylchroman-2-carboxylic acid, a water-soluble derivative of vitamin E) at 20 µmol/L, L-ascorbic acid (50 µmol/L), or deferoxamine (50 µmol/L) 30 min prior to STE addition. Treatment was from a 10 mM stock solution of each agent, and the maximal concentration of vehicle [dimethyl sulfoxide (DMSO)] in culture medium was 0.01% (v/v). When possible, agents were diluted in appropriate cell culture medium (TROLOX, L-ascorbic acid, deferoxamine). Exposure to STE is expressed in terms of the amount of reference MST used to produce the total volume of STE [i.e., 100 mg/ml (w/v)]. The indicated concentrations of STE (1-100 mg/ml) exposure were chosen for these studies because they are within the reference range of previously cited works involving smokeless tobacco exposure (Bagchi et al., “Smokeless tobacco, oxidative stress, apoptosis, and antioxidants in human oral keratinocytes.: Free Radic. Biol. Med. 26, 992-1000 (1999); Mangipudy et al., “Role of nitric oxide in the induction of apoptosis by smokeless tobacco extract.” Mol Cell Biochem. 200, 51-57 (1999); and Petro, “Modulation of IL-12 p35 and p40 promoter activity by smokeless tobacco extract is associated with an effect upon activation of NF-kappaB but not IRF transcription factors.” Int. Immunopharmacol.
Morphologic assessment of viable cells and apoptotic and necrotic cell death was performed as follows. Cells were harvested 3 hours after STE exposure, unless otherwise noted, by treatment with trypsin-EDTA for approximately 5 minutes at 37° C. As some apoptotic cells detached from the culture substratum into the medium, these cells were also collected by centrifugation of the medium at 125 g for 5 minutes. […] Nuclear and total cellular morphology were evaluated. […]

[2] = for chelation of free calcium of MST-extract: 9.5 mM chelator in MST-extract
Protocol: The term “free” with regard to (1) calcium and (2) iron refers to (1) Ca^2+ and (2) Fe^2+ and/or Fe^3+, respectively. Determination of an amount of free iron and/or free calcium in smokeless tobacco can be made by first incubating the smokeless tobacco with any chelators that may be used for an appropriate amount of time (for example, one day), then separating extract by centrifugation with glass beads. […] Then, fifteen grams of Glass Beads (Kimble; 6 MM catalog # 13500-6) can be added to the Vectrospin™ tube containing the tobacco. The tube is preferably centrifuged at 2200 g for 20 minutes to recover tobacco extract. Free calcium and iron can be measured using the respective QuantiChrom™ assay kits (BioAssay Systems, Hayward, CA) according to the manufacturer’s instructions.

cells = assay: Cell death during cell wounding by washed MST, platform rocker exposure system; format: cell-based; conditions: for cell death associated with MST-extract exposure during cell wounding: MST-extract containing 9.5 mM chelator, with washed MST, 30 minutes
Protocol: Cell death was measured immediately following treatment.
We then treated cells for 30 minutes with MST-extract/chelator preparations in the presence of washed MST using the platform exposure system and assessed cell death immediately following treatment.

Klebsiella pneumoniae = conditions: cited from earlier work
HOK-16B cells [3] = assay: Intracellular ROS generation (DCFH-DA fluorescence) after STE exposure; format: cell-based, human; conditions: TROLOX 20 µmol/L, L-ascorbic acid 50 µmol/L or deferoxamine 50 µmol/L, 30 min prior to STE addition; FIG. 1C
Protocol: as §1, with “used. […]” for “used.”
The intracellular generation of reactive oxygen species (ROS) was measured by using membrane permeable oxidation-sensitive fluorescent dye DCFH-DA. […] Fluorescence measurements were obtained 0 to 3 hours after STE addition, at the indicated concentrations, with a plate reader. Thirty minutes before the measurement of ROS in the plate reader, cells were incubated with DCFH-DA (25 µmol/L) or DMSO vehicle. The medium was then rapidly removed, the cells were washed in ice-cold phosphate-buffered saline and replaced with medium lacking dye, and the plate was placed into the plate reader. Data at each time point are presented corrected for basal fluorescence of vehicle-treated cells at the same time point. […]

## [Cl][Fe]([Cl])[Cl] [FeCl3]
HOK-16B cells [1]; free iron 14 pM in cell culture medium without STE, 0 pM gave 4.9 ± 0.6%
  percent necrotic cell death after 3 hours: 13.4 ± 1.0%
HOK-16B cells [1]; free iron 31 pM in cell culture medium without STE
  percent necrotic cell death after 3 hours: 26.2 ± 3.5%
HOK-16B cells [1]; free iron 71 pM in cell culture medium without STE
  percent necrotic cell death after 3 hours: 37.9 ± 4.5%

## O=C(O)CN(CCN(CC(=O)O)CC(=O)O)CC(=O)O [EDTA, ethylenediamine tetraacetic acid]
[2]
  chelation of free calcium of MST-extract: nearly all
cells
  cell death associated with MST-extract exposure during cell wounding: reduced cell death
Klebsiella pneumoniae
  capsule production of Klebsiella pneumoniae: reduced capsule production

## Cc1c(C)c2c(c(C)c1O)CCC(C)(C(=O)O)O2 (stereo not drawn) [TROLOX, 6-hydroxy-2,5,7,8-tetramethylchroman-2-carboxylic acid]
HOK-16B cells [1]
  protection from STE-induced cell death: can protect against cell death
HOK-16B cells [3]
  production of ROS induced by STE: completely suppressed

## O=C1O[C@H]([C@@H](O)CO)C(O)=C1O [L-ascorbic acid]
HOK-16B cells [1]
  protection from STE-induced cell death: can protect against cell death
HOK-16B cells [3]
  production of ROS induced by STE: completely suppressed

## O=C(O)CN(CCOCCOCCN(CC(=O)O)CC(=O)O)CC(=O)O [EGTA, ethylene glycol tetraacetic acid]
[2]
  chelation of free calcium of MST-extract: nearly all
[2]; 13.5 mM Ca2+ medium
  free calcium levels in the high Ca2+ medium after chelator addition: less than 2 mM
cells
  cell death associated with MST-extract exposure during cell wounding: reduced cell death
cells; free calcium reduced to less than 2 mM
  cell death with chelator-treated high Ca2+ medium in combination with washed MST: significantly reduced degree of cell death
Klebsiella pneumoniae
  capsule production of Klebsiella pneumoniae: reduced capsule production
